SMILES strings stand for the structures.

The target of one assay is T1, Jarid1B (Homo sapiens, UniProt Q9UGL1).
T1 construct: purchased BPS Bioscience or custom made by MolecularThroughput 50121
T1 sequence (Q9UGL1 2-751): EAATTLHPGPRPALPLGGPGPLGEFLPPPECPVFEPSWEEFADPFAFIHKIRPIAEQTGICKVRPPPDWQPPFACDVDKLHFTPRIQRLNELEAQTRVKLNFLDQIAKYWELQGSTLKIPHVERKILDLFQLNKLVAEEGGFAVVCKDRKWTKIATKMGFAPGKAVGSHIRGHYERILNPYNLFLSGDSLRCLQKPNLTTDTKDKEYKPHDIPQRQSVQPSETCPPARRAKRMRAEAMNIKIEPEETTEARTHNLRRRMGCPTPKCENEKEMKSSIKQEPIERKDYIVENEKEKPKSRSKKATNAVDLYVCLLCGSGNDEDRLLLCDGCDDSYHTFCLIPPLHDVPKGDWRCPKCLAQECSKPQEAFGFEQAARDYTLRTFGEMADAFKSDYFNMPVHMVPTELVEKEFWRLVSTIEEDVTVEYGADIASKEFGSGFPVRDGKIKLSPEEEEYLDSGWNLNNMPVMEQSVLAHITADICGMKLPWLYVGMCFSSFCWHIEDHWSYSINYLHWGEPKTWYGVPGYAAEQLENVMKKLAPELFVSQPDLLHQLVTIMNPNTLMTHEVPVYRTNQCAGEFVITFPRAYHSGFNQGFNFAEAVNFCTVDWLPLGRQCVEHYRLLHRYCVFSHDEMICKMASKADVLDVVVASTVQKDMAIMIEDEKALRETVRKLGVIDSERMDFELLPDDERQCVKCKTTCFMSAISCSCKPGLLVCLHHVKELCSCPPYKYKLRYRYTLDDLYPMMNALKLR
As to the kind of experiment: Jarid1B in vitro enzyme inhibition assay (TR-FRET). Format: biochemical. An excerpt:
(§1) This assay determines the ability of a test compound to inhibit Jarid1A, Jarid1B, and JMJD2C demethylase activity. Baculovirus expressed Jarid1A (GenBank Accession #NM_001042603, AA1-1090) was purchased from BPS Bioscience (Cat#50110). Baculovirus expressed Jarid1B (GenBank Accession #NM_006618, AA 2-751) was purchased from BPS Bioscience (Cat #50121) or custom made by MolecularThroughput. Baculovirus expressed JMJD2C (GenBank Accession #BC143571, AA 2-372) was purchased from BPS Bioscience (Cat#50105).
The ability of test compounds to inhibit the activity of Jarid1B was determined in 384-well plate format under the following reaction conditions: 0.8 nM Jarid1B, 300 nM H3K4me3-biotin labeled peptide (Anaspec cat #64357), 2 μM alpha-ketoglutaric acid in assay buffer of 50 mM HEPES, pH7.3, 0.005% Brij35, 0.5 mM TCEP, 0.2 mg/ml BSA, 50 μM sodium L-ascorbate, and 2 μM ammonium iron(II) sulfate. Reaction product was determined quantitatively by TR-FRET after the addition of detection reagent Phycolink Streptavidin-allophycocyanin (Prozyme) and Europium-anti-mono-or di-methylated histone H3 lysine 4 (H3K4me1-2) antibody (PerkinElmer) in the presence of 5 mM EDTA in LANCE detection buffer (PerkinElmer) at a final concentration of 25 nM and 1 nM, respectively.
(§2) The assay reaction was initiated by the following: 2 μl of the mixture of 900 nM H3K4me3-biotin labeled peptide and 6 μM alpha-ketoglutaric acid with 2 μl of 11-point serial diluted inhibitor in 3% DMSO was added to each well of the plate, followed by the addition of 2 μl of 2.4 nM Jarid1B to initiate the reaction. The reaction mixture was incubated at room temperature for 30 minutes, and terminated by the addition of 6 μl of 5 mM EDTA in LANCE detection buffer containing 50 nM Phycolink Streptavidin-allophycocyanin and 2 nM Europium-anti-H3K4me1-2 antibody. Plates were read by EnVisionMultilabel Reader in TR-FRET mode (excitation at 320 nm, emission at 615 nm and 665 nm) after 1 hour incubation at room temperature. A ratio was calculated (665/615) for each well and fitted to determine inhibition constant (IC50).
(In general: In TR-FRET formats the signal depends on donor and acceptor labels being close together.)

For the next assay, the target named is T2, JMJD2C (Homo sapiens, UniProt Q9H3R0).
T2 construct: purchased BPS Bioscience 50105
T2 sequence (Q9H3R0 2-372): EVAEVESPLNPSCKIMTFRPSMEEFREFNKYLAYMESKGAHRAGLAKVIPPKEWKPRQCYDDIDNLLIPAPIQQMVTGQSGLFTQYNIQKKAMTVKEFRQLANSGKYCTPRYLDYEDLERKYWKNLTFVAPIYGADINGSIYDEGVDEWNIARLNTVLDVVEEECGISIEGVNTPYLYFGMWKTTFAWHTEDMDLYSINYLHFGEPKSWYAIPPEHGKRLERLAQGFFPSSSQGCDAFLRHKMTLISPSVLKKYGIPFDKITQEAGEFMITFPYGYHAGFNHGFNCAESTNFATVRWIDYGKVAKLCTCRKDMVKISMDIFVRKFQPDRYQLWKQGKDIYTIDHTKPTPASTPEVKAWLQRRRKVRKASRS
As to the kind of experiment: JMJD2C in vitro enzyme inhibition assay (TR-FRET). Format: biochemical.
Excerpt: as §1
The ability of test compounds to inhibit the activity of JMJD2C was determined in 384-well plate format under the following reaction conditions: 0.3 nM JMJD2C, 300 nM H3K9me3-biotin labeled peptide (Anaspec cat #64360), 2 μM alpha-ketoglutaric acid in assay buffer of 50 mM HEPES, pH7.3, 0.005% Brij35, 0.5 mM TCEP, 0.2 mg/ml BSA, 50 μM sodium L-ascorbate, and 2 μM ammonium iron(II) sulfate. Reaction product was determined quantitatively by TR-FRET after the addition of detection reagent Phycolink Streptavidin-allophycocyanin (Prozyme) and Europium-anti-di-methylated histone H3 lysine 9 (H3K9me2) antibody (PerkinElmer) in the presence of 5 mM EDTA in LANCE detection buffer (PerkinElmer) at a final concentration of 50 nM and 1 nM, respectively.
as §2, with “nM H3K9me3-biotin” for “nM H3K4me3-biotin”, “DMSO were” for “DMSO was”, “of 0.9” for “of 2.4”, “nM JMJD2C” for “nM Jarid1B”, “containing 100” for “containing 50”, “nM Europium-anti-H3K9me2” for “nM Europium-anti-H3K4me1-2”

`Oc1nc(Oc2cnn(C3CCCC3)c2)nc2cnccc12` [Example 56, 2-[(1-cyclopentylpyrazol-4-yl)oxy]pyrido[3,4-d]pyrimidin-4-ol]: the half-maximal inhibitory concentration (IC50) on Jarid1B and against JMJD2C was at most 100 nM throughout.

For the molecule `Oc1nc(Oc2ccc(F)c(F)c2)nc2cnccc12` [Example 37, 2-(3,4-difluorophenoxy)pyrido[3,4-d]pyrimidin-4-ol], the IC50 on Jarid1B and against JMJD2C was at most 100 nM each time.

Turning to `COCCn1cc(Oc2nc(O)c3ccncc3n2)cn1` [Example 64, 2-{[1-(2-methoxyethyl)-1H-pyrazol-4-yl]oxy}pyrido[3,4-d]pyrimidin-4-ol], the IC50 (usually the concentration at which inhibition is half-maximal) is at most 100 nM at Jarid1B and 100 to 1000 nM against JMJD2C.

Turning to `Cn1cnc(-c2nccc3c(O)nc(OCCC4CC4)nc23)c1` [Example 78, 2-(2-cyclopropylethoxy)-8-(1-methylimidazol-4-yl)pyrido[3,4-d]pyrimidin-4-ol], the IC50 against Jarid1B was at most 100 nM; on JMJD2C it was 100 to 1000 nM.

As for `Oc1nc(Oc2ccccc2F)nc2cnccc12` [Example 46, 2-(2-fluorophenoxy)pyrido[3,4-d]pyrimidin-4-ol], the IC50 against Jarid1B and against JMJD2C was 100 to 1000 nM each time.

As to `COc1ccc(Oc2nc(O)c3ccncc3n2)cc1` [Example 48, 2-(4-methoxyphenoxy)pyrido[3,4-d]pyrimidin-4-ol], the half-maximal inhibitory concentration (IC50) at Jarid1B and at JMJD2C was at most 100 nM in each case.

Take `Oc1nc(OC2CCCC2)nc2cnccc12` [Example 6, 2-cyclopentyloxy-3H-pyrido[3,4-d]pyrimidin-4-one]: the IC50 against Jarid1B and against JMJD2C was 100 to 1000 nM each time.

For `COCCn1ncc2ccc(Oc3nc(O)c4ccncc4n3)cc21` [Example 61, 2-{[1-(2-methoxyethyl)-1H-indazol-6-yl]oxy}pyrido[3,4-d]pyrimidin-4-ol], the half-maximal inhibitory concentration (IC50) against Jarid1B is at most 100 nM; on JMJD2C, 100 to 1000 nM.

Consider `Cn1cnc(-c2nccc3c(O)nc(Oc4cnn(C5CCOCC5)c4)nc23)c1` [Example 100, 8-(1-methylimidazol-4-yl)-2-[1-(oxan-4-yl)pyrazol-4-yl]oxypyrido[3,4-d]pyrimidin-4-ol], for which the half-maximal inhibitory concentration (IC50) at Jarid1B is at most 100 nM; on JMJD2C, 100 to 1000 nM.

On to `COCCCn1cc(Oc2nc(O)c3ccncc3n2)cn1` [Example 65, 2-{[1-(3-methoxypropyl)-1H-pyrazol-4-yl]oxy}pyrido[3,4-d]pyrimidin-4-ol], for which the concentration for half-maximal inhibition (IC50) on Jarid1B was at most 100 nM; at JMJD2C, 100 to 1000 nM.

For `Oc1nc(Oc2cnn(C3CCOCC3)c2)nc2cnccc12` [Example 67, 2-{[1-(tetrahydro-2H-pyran-4-yl)-1H-pyrazol-4-yl]oxy}pyrido[3,4-d]pyrimidin-4-ol], the IC50 is at most 100 nM at Jarid1B and 100 to 1000 nM at JMJD2C.

Consider `Oc1nc(OCCOc2ccccc2)nc2cnccc12` [Example 10, 2-(2-phenoxyethoxy)-3H-pyrido[3,4-d]pyrimidin-4-one], for which the IC50 against Jarid1B and at JMJD2C was 100 to 1000 nM each time.

As to `Oc1nc(Oc2ccc(Cl)cc2)nc2cnccc12` [Example 49, 2-(4-chlorophenoxy)pyrido[3,4-d]pyrimidin-4-ol], the IC50 against Jarid1B and at JMJD2C was at most 100 nM in each case.

In the case of `COc1nc(O)c2ccnc(-c3cn(C)cn3)c2n1` [Example 68, 2-methoxy-8-(1-methyl-1H-imidazol-4-yl)pyrido[3,4-d]pyrimidin-4-ol], the results for the concentration for half-maximal inhibition (IC50) against Jarid1B and against JMJD2C were at most 100 nM and 100 to 1000 nM, respectively.

Take `Oc1nc(OCC2CC2)nc2cnccc12` [Example 5, 2-(cyclopropylmethoxy)-3H-pyrido[3,4-d]pyrimidin-4-one]: the IC50 against Jarid1B and at JMJD2C was 100 to 1000 nM throughout.

For `Cn1cnc(-c2nccc3c(O)nc(Oc4ccc5cnn(C)c5c4)nc23)c1` [Example 83, 8-(1-methylimidazol-4-yl)-2-(1-methylindazol-6-yl)oxypyrido[3,4-d]pyrimidin-4-ol], the IC50 was at most 100 nM on Jarid1B and 100 to 1000 nM against JMJD2C.

In the case of `Cn1cnc(-c2nccc3c(O)nc(OCC4CC4)nc23)c1` [Example 72, 2-(cyclopropylmethoxy)-8-(1-methylimidazol-4-yl)pyrido[3,4-d]pyrimidin-4-ol], the IC50 is at most 100 nM at Jarid1B and 100 to 1000 nM on JMJD2C.

Regarding `Cn1cnc(-c2nccc3c(O)nc(OCc4ccccc4Cl)nc23)c1` [Example 105, 2-[(2-chlorophenyl)methoxy]-8-(1-methyl-1H-imidazol-4-yl)pyrido[3,4-d]pyrimidin-4-ol], the half-inhibitory concentration (IC50) against Jarid1B and on JMJD2C was at most 100 nM in each case.

For `Cn1cnc(-c2nccc3c(O)nc(OCCO)nc23)c1` [Example 75, 2-(2-hydroxyethoxy)-8-(1-methylimidazol-4-yl)pyrido[3,4-d]pyrimidin-4-ol], the IC50 against Jarid1B was at most 100 nM; against JMJD2C it was 100 to 1000 nM.

On to `CCCn1cc(Oc2nc(O)c3ccncc3n2)cn1` [Example 54, 2-(1-propylpyrazol-4-yl)oxypyrido[3,4-d]pyrimidin-4-ol], for which the IC50 is at most 100 nM against Jarid1B and 100 to 1000 nM on JMJD2C.

Turning to `CCOc1nc(O)c2ccnc(-c3cn(C)cn3)c2n1` [Example 69, 2-ethoxy-8-(1-methyl-1H-imidazol-4-yl)pyrido[3,4-d]pyrimidin-4-ol], the concentration for half-maximal inhibition (IC50) on Jarid1B is at most 100 nM; at JMJD2C, 100 to 1000 nM.

Regarding `CC(C)c1cccc(Oc2nc(O)c3ccncc3n2)c1` [Example 39, 2-(3-propan-2-ylphenoxy)pyrido[3,4-d]pyrimidin-4-ol], the values for the IC50 on Jarid1B and against JMJD2C were at most 100 nM and 100 to 1000 nM, respectively.

In the case of `Oc1nc(Oc2cnn(Cc3ccc(F)cc3)c2)nc2cnccc12` [Example 86, 2-[1-(4-fluorobenzyl)pyrazol-4-yl]oxypyrido[3,4-d]pyrimidin-4-ol], the IC50 at Jarid1B and at JMJD2C was at most 100 nM in each case.

(Values after US10526327B2, “Histone demethylase inhibitors” (CELGENE QUANTICEL RESEARCH, INC., priority 2013, dated 2020).)
